Measurements published in ChEMBL document CHEMBL5512645, “A novel antimicrobial peptide with broad-spectrum and exceptional stability derived from the natural peptide Brevicidine” (Eur J Med Chem, 2024).
In brackets after ≈: the same amount, converted by molar mass. Activity calls are given as the source filed them. No cut-off for these calls is given here. Bridge positions count the residues as written; N and C are the ends. Square brackets hold non-standard residues; d marks the D form. Peptide text beside a SMILES is read from it. * marks the point of attachment. ξ: configuration not given here. Hexanoyl(4ξ-Me) = CCC(C)CCC(=O)*; dOrn = NCCC[C@@H](N)C(=O)O; Orn = NCCC[C@H](N)C(=O)O

What was measured:
Staphylococcus aureus [1] = experiment: In vivo antibacterial activity against Staphylococcus aureus ATCC 25923 infected in BALB/c mouse model assessed as reduction in bacterial count in spleen at 10 mg/kg, ip preadministered with compound for 1 hr followed by bacterial infection and measured after 6 hrs […]; format: functional, organism-based; conditions: time 7.0 hrs
Pseudomonas aeruginosa [2] = experiment: Antibacterial activity against Pseudomonas aeruginosa ATCC 27853 assessed as fold increase in MIC pretreated with KCl followed by compound addition and measured after 2 hrs by broth microdilution method; format: functional
Staphylococcus aureus [3] = experiment: Antibacterial activity against Staphylococcus aureus ATCC 25923 at sub-MIC measured after 20 days in presence of gentamicin; format: functional, organism-based; conditions: time 20.0 day
Pseudomonas aeruginosa [4] = experiment: Antibacterial activity against Pseudomonas aeruginosa ATCC 27853 at sub-MIC measured after 20 days in presence of gentamicin; format: functional, organism-based; conditions: time 20.0 day
Staphylococcus aureus [5] = experiment: Antibacterial activity against Staphylococcus aureus ATCC 25923 incubated for 18 to 24 hrs by broth microdilution method; format: functional; conditions: time 18-24 hrs
Staphylococcus aureus [6] = experiment: In vivo antibacterial activity against Staphylococcus aureus ATCC 25923 infected in BALB/c mouse model assessed as amelioration of pathological changes in kidney at 5 to 10 mg/kg, ip measured after 7 hrs by H and E staining based analysis; format: functional, organism-based; conditions: dose 5-10 mg/kg
Staphylococcus aureus [7] = experiment: Antibacterial activity against Staphylococcus aureus ATCC 25923 at sub-MIC measured after 20 days in presence of rifampicin; format: functional, organism-based; conditions: time 20.0 day
[8] = system: Staphylococcus epidermidis; experiment: Antibacterial activity against Staphylococcus epidermidis ATCC 12228 incubated for 18 to 24 hrs by broth microdilution method; format: functional; conditions: time 18-24 hrs
Pseudomonas aeruginosa [9] = experiment: Antibacterial activity against Pseudomonas aeruginosa ATCC 27853 pretreated with FeCl3 followed by compound addition and measured after 2 hrs by broth microdilution method (reference value: 2 microM); format: functional
Bacillus subtilis = experiment: Antibacterial activity against Bacillus subtilis ATCC 23857 incubated for 18 to 24 hrs by broth microdilution method; format: functional; conditions: time 18-24 hrs
Pseudomonas aeruginosa [10] = experiment: Antibacterial activity against Pseudomonas aeruginosa ATCC 27853 pretreated with 2.5% mouse serum followed by compound addition and measured after 1 hr by broth microdilution method (reference value: 2 microM); format: functional
Pseudomonas aeruginosa [11] = experiment: Antibacterial activity against Pseudomonas aeruginosa ATCC 27853 pretreated with 2.5% mouse serum followed by compound addition and measured after 6 hrs by broth microdilution method (reference value: 2 microM); format: functional
Escherichia coli = experiment: Antibacterial activity against Escherichia coli ATCC 25922 incubated for 18 to 24 hrs by broth microdilution method; format: functional; conditions: time 18-24 hrs
Pseudomonas aeruginosa [12] = experiment: Antibacterial activity against Pseudomonas aeruginosa ATCC 27853 pretreated with 5% mouse serum followed by compound addition and measured after 6 hrs by broth microdilution method (reference value: 2 microM); format: functional
Pseudomonas aeruginosa [13] = experiment: Antibacterial activity against Pseudomonas aeruginosa ATCC 27853 assessed as fold increase in MIC pretreated with FeCl3 followed by compound addition and measured after 2 hrs by broth microdilution method; format: functional
Pseudomonas aeruginosa [14] = experiment: Antibacterial activity against Pseudomonas aeruginosa ATCC 27853 pretreated with 5% mouse serum followed by compound addition and measured after 1 hr by broth microdilution method (reference value: 2 microM); format: functional
Pseudomonas aeruginosa [15] = experiment: Antibacterial activity against Pseudomonas aeruginosa ATCC 27853 at sub-MIC measured after 20 days in presence of rifampicin; format: functional, organism-based; conditions: time 20.0 day
Enterococcus faecalis = experiment: Antibacterial activity against Enterococcus faecalis ATCC 29212 incubated for 18 to 24 hrs by broth microdilution method; format: functional; conditions: time 18-24 hrs
Pseudomonas aeruginosa [16] = experiment: Antibacterial activity against Pseudomonas aeruginosa ATCC 27853 pretreated with 20% mouse serum followed by compound addition and measured after 6 hrs by broth microdilution method (reference value: 2 microM); format: functional
Pseudomonas aeruginosa [17] = experiment: Antibacterial activity against Pseudomonas aeruginosa ATCC 27853 pretreated with Zncl2 followed by compound addition and measured after 2 hrs by broth microdilution method (reference value: 2 microM); format: functional
Pseudomonas aeruginosa [18] = experiment: Antibacterial activity against Pseudomonas aeruginosa ATCC 27853 pretreated with KCl followed by compound addition and measured after 2 hrs by broth microdilution method (reference value: 2 microM); format: functional
Pseudomonas aeruginosa [19] = experiment: Antibacterial activity against Pseudomonas aeruginosa ATCC 27853 pretreated with 10% mouse serum followed by compound addition and measured after 6 hrs by broth microdilution method (reference value: 2 microM); format: functional
Staphylococcus aureus [20] = experiment: Antibiofilm activity against Staphylococcus aureus ATCC 25923 at 1/2 to 4 times MIC measured after 24 hrs by crystal violet staining based analysis; format: functional, organism-based
Staphylococcus aureus [21] = experiment: In vivo antibacterial activity against Staphylococcus aureus ATCC 25923 infected in BALB/c mouse model assessed as reduction in bacterial count in lung at 10 mg/kg, ip preadministered with compound for 1 hr followed by bacterial infection and measured after 6 hrs […]; format: functional, organism-based; conditions: time 7.0 hrs
Staphylococcus aureus [22] = experiment: Antibacterial activity against Staphylococcus aureus ATCC 25923 at sub-MIC measured after 20 days; format: functional, organism-based; conditions: time 20.0 day
Pseudomonas aeruginosa [23] = experiment: Antibacterial activity against Pseudomonas aeruginosa ATCC 27853 pretreated with Na-cl followed by compound addition and measured after 2 hrs by broth microdilution method (reference value: 2 microM); format: functional
Pseudomonas aeruginosa [24] = experiment: Antibacterial activity against Pseudomonas aeruginosa ATCC 27853 incubated for 18 to 24 hrs by broth microdilution method; format: functional; conditions: time 18-24 hrs
Pseudomonas aeruginosa [25] = experiment: Antibiofilm activity against Pseudomonas aeruginosa ATCC 27853 at 1/2 to 4 times MIC measured after 24 hrs by crystal violet staining based analysis; format: functional, organism-based
Acinetobacter baumannii = experiment: Antibacterial activity against Acinetobacter baumannii ATCC 19606 incubated for 18 to 24 hrs by broth microdilution method; format: functional; conditions: time 18-24 hrs
Pseudomonas aeruginosa [26] = experiment: Antibacterial activity against Pseudomonas aeruginosa ATCC 27853 pretreated with 20% mouse serum followed by compound addition and measured after 1 hr by broth microdilution method (reference value: 2 microM); format: functional
Pseudomonas aeruginosa [27] = experiment: Antibacterial activity against Pseudomonas aeruginosa ATCC 27853 assessed as fold increase in MIC pretreated with ZnCl2 followed by compound addition and measured after 2 hrs by broth microdilution method; format: functional
Pseudomonas aeruginosa [28] = experiment: Antibacterial activity against Pseudomonas aeruginosa ATCC 27853 pretreated with 10% mouse serum followed by compound addition and measured after 1 hr by broth microdilution method (reference value: 2 microM); format: functional
Staphylococcus aureus [29] = experiment: In vivo antibacterial activity against Staphylococcus aureus ATCC 25923 infected in BALB/c mouse model assessed as amelioration of pathological changes in spleen at 5 to 10 mg/kg, ip measured after 7 hrs by H and E staining based analysis; format: functional, organism-based; conditions: dose 5-10 mg/kg
Pseudomonas aeruginosa [30] = experiment: Antibacterial activity against Pseudomonas aeruginosa ATCC 27853 pretreated with Mgcl2 followed by compound addition and measured after 2 hrs by broth microdilution method (reference value: 2 microM); format: functional
Klebsiella pneumoniae = experiment: Antibacterial activity against Klebsiella pneumoniae ATCC 700603 incubated for 18 to 24 hrs by broth microdilution method; format: functional; conditions: time 18-24 hrs
Pseudomonas aeruginosa [31] = experiment: Induction of morphological changes in Pseudomonas aeruginosa ATCC 27853 assessed as pore formation on bacterial surface at 2 times MIC measured after 0.5 hrs by SEM based analysis; format: functional, organism-based
Pseudomonas aeruginosa [32] = experiment: Induction of morphological changes in Pseudomonas aeruginosa ATCC 27853 assessed as leakage of cellular content at 2 times MIC measured after 0.5 hrs by SEM based analysis; format: functional, organism-based

Molecule	Activity (Staphylococcus aureus [3])	Activity (Pseudomonas aeruginosa [4])	MIC (Staphylococcus aureus [5])	Activity (Staphylococcus aureus [7])	MIC [8]	MIC (Pseudomonas aeruginosa [9])	MIC (Bacillus subtilis)	MIC (Pseudomonas aeruginosa [10])	MIC (Pseudomonas aeruginosa [11])	MIC (Escherichia coli)	MIC (Pseudomonas aeruginosa [12])	MIC (Pseudomonas aeruginosa [14])	Activity (Pseudomonas aeruginosa [15])	MIC (Enterococcus faecalis)	MIC (Pseudomonas aeruginosa [16])	MIC (Pseudomonas aeruginosa [17])	MIC (Pseudomonas aeruginosa [18])	MIC (Pseudomonas aeruginosa [19])	Activity (Staphylococcus aureus [20])	MIC (Pseudomonas aeruginosa [23])	also measured
CCCCCCCCCC(=O)N[C@H](CCCN)C(=O)N[C@H](Cc1ccc(O)cc1)C(=O)N[C@H](Cc1c[nH]c2ccccc12)C(=O)N[C@H](CCCN)C(=O)N[C@@H](CCCN)C(=O)NCC(=O)N[C@H](CCCN)C(=O)N[C@@H](Cc1c[nH]c2ccccc12)C(=O)N[C@H](C(=O)N[C@H](C(=O)NCC(=O)N[C@@H](CO)C(=O)O)[C@@H](C)CC)[C@@H](C)O	Active	Active	8 µM (≈ 12.6 µg/mL)	Active	4 µM (≈ 6.32 µg/mL)	< 1 µM	2 µM (≈ 3.16 µg/mL)	2 µM (≈ 3.16 µg/mL)	2 µM (≈ 3.16 µg/mL)	4 µM (≈ 6.32 µg/mL)	2 µM (≈ 3.16 µg/mL)	2 µM (≈ 3.16 µg/mL)	Active	16 µM (≈ 25.3 µg/mL)	8 µM (≈ 12.6 µg/mL)	2 µM (≈ 3.16 µg/mL)	2 µM (≈ 3.16 µg/mL)	4 µM (≈ 6.32 µg/mL)	Active	2 µM (≈ 3.16 µg/mL)	Activity (Staphylococcus aureus [1]): Active; fold change (FC) (Pseudomonas aeruginosa [2]): 8; Activity (Staphylococcus aureus [6]): Active; fold change (FC) (Pseudomonas aeruginosa [13]): 8; Activity (Staphylococcus aureus [21]): Active; Activity (Staphylococcus aureus [22]): Active; MIC (Pseudomonas aeruginosa [24]): 2 µM (≈ 3.16 µg/mL); Activity (Pseudomonas aeruginosa [25]): Active; MIC (Acinetobacter baumannii): 4 µM (≈ 6.32 µg/mL); MIC (Pseudomonas aeruginosa [26]): 4 µM (≈ 6.32 µg/mL); fold change (FC) (Pseudomonas aeruginosa [27]): 8; MIC (Pseudomonas aeruginosa [28]): 2 µM (≈ 3.16 µg/mL); Activity (Staphylococcus aureus [29]): Active; MIC (Pseudomonas aeruginosa [30]): 2 µM (≈ 3.16 µg/mL); MIC (Klebsiella pneumoniae): 4 µM (≈ 6.32 µg/mL)
CCC(C)CCC(=O)N[C@H](CC(N)=O)C(=O)N[C@H](Cc1ccc(O)cc1)C(=O)N[C@H](Cc1c[nH]c2ccccc12)C(=O)N[C@H](CCCN)C(=O)N[C@@H](CCCN)C(=O)NCC(=O)N[C@H](CCCN)C(=O)N[C@@H](Cc1c[nH]c2ccccc12)C(=O)N[C@@H]1C(=O)N[C@@H]([C@@H](C)CC)C(=O)NCC(=O)N[C@@H](CO)C(=O)O[C@@H]1C (stereo partly specified) ({Hexanoyl(4ξ-Me)}-[dN][dY][dW][dOrn][Orn]G[dOrn]WTIGS; ester 9-C)	Active	Active	64 µM (≈ 97.3 µg/mL)	Active	32 µM (≈ 48.6 µg/mL)	4 µM (≈ 6.08 µg/mL)	8 µM (≈ 12.2 µg/mL)	2 µM (≈ 3.04 µg/mL)	8 µM (≈ 12.2 µg/mL)	2 µM (≈ 3.04 µg/mL)	8 µM (≈ 12.2 µg/mL)	2 µM (≈ 3.04 µg/mL)	Active	64 µM (≈ 97.3 µg/mL)	16 µM (≈ 24.3 µg/mL)	4 µM (≈ 6.08 µg/mL)	8 µM (≈ 12.2 µg/mL)	8 µM (≈ 12.2 µg/mL)	Active	4 µM (≈ 6.08 µg/mL)	fold change (FC) (Pseudomonas aeruginosa [2]): 4; Activity (Pseudomonas aeruginosa [31]): Active; fold change (FC) (Pseudomonas aeruginosa [13]): 2; Activity (Staphylococcus aureus [22]): Active; MIC (Pseudomonas aeruginosa [24]): 2 µM (≈ 3.04 µg/mL); Activity (Pseudomonas aeruginosa [25]): Active; MIC (Acinetobacter baumannii): 8 µM (≈ 12.2 µg/mL); MIC (Pseudomonas aeruginosa [26]): 4 µM (≈ 6.08 µg/mL); Activity (Pseudomonas aeruginosa [32]): Active; fold change (FC) (Pseudomonas aeruginosa [27]): 2; MIC (Pseudomonas aeruginosa [28]): 4 µM (≈ 6.08 µg/mL); MIC (Pseudomonas aeruginosa [30]): 8 µM (≈ 12.2 µg/mL); MIC (Klebsiella pneumoniae): 2 µM (≈ 3.04 µg/mL)
POLYMYXIN B	Active	Active	16 µM	Active	32 µM	< 1 µM	8 µM	2 µM	2 µM	2 µM	2 µM	2 µM	Active	128 µM	4 µM	< 1 µM	< 1 µM	4 µM	Active	< 1 µM	Activity (Staphylococcus aureus [1]): Active; Activity (Staphylococcus aureus [6]): Active; Activity (Pseudomonas aeruginosa [31]): Active; Activity (Staphylococcus aureus [21]): Active; MIC (Pseudomonas aeruginosa [24]): 2 µM; Activity (Pseudomonas aeruginosa [25]): Active; MIC (Acinetobacter baumannii): 1 µM; MIC (Pseudomonas aeruginosa [26]): 2 µM; Activity (Pseudomonas aeruginosa [32]): Active; MIC (Pseudomonas aeruginosa [28]): 2 µM; Activity (Staphylococcus aureus [29]): Active; MIC (Pseudomonas aeruginosa [30]): 2 µM; MIC (Klebsiella pneumoniae): 4 µM
